In patent US7064204B2, “Pharmaceutically active compounds having a tricyclic pyrazolotriazolopyrimidine ring structure and methods of use” (King Pharmacueticals Reserch and Development, Inc., priority 2002, dated 2006):

Experiments:
[1] = biological target: T1, human A2A adenosine receptors (Homo sapiens, UniProt P29274); assay: Displacement of [3H]SCH58261 binding at human A2A adenosine receptors expressed in CHO cells; settings: Table 3: [3H]SCH58261, human A2A, CHO cells
T1 construct: expressed in transfected cells; host or cells: CHO cells

[2] = biological target: T2, human A3 adenosine receptors (Homo sapiens, UniProt P0DMS8); assay: Displacement of [3H]MRE 3008F20 binding at human A3 adenosine receptors expressed in CHO cells; design: expressed in transfected cells; host or cells: CHO cells; settings: for Ki: Table 3: [3H]MRE 3008F20, human A3, CHO cells
T2 sequence (P0DMS8 1-318): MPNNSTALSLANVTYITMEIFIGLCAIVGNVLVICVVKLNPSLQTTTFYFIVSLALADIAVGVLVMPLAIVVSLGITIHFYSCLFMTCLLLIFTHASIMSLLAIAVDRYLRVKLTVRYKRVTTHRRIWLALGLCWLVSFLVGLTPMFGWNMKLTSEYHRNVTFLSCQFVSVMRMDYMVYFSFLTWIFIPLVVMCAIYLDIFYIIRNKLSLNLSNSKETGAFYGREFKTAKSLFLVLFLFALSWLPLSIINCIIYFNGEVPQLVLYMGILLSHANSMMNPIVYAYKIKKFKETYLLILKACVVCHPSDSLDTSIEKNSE

[3] = biological target: T3, human A2B adenosine receptors (Homo sapiens, UniProt P29275); assay: Displacement of [3H]DPCPX binding at human A2B adenosine receptors expressed in HEK-293 cells; settings: Table 3: [3H]DPCPX, HEK-293 cells
T3 construct: expressed in transfected cells; host or cells: HEK-293 cells
T3 sequence (P29275 1-332): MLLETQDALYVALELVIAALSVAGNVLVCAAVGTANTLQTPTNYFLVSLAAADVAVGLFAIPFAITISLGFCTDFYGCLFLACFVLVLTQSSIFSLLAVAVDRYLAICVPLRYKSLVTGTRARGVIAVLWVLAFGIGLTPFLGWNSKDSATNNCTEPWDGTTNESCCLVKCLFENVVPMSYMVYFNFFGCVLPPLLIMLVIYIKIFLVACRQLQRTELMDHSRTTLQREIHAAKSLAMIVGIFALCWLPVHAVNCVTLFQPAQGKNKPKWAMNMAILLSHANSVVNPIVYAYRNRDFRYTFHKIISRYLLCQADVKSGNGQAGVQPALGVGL

[4] = biological target: T4, human A1 adenosine receptors (Homo sapiens, UniProt P30542); assay: Displacement of [3H]DPCPX binding at human A1 adenosine receptors expressed in CHO cells; settings: Table 3: [3H]DPCPX, human A1, CHO cells
T4 construct: expressed in transfected cells; host or cells: CHO cells
T4 sequence (P30542 1-326): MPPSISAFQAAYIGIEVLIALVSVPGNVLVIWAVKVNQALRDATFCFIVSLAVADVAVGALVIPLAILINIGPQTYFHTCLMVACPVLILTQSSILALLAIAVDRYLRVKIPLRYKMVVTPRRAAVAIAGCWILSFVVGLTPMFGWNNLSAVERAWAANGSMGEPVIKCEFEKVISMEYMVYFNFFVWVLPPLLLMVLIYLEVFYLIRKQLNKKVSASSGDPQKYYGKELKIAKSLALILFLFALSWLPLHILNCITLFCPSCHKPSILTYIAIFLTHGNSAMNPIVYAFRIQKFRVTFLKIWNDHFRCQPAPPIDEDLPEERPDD

[5] = Water solubility (stated in words); assay type: physicochemical
[6] = biological target: T2, human A3 adenosine receptors; assay: Displacement of [125I]AB MECA binding at human A3 adenosine receptors expressed in HEK-293 cells; design: expressed in transfected cells; settings: Table 2, footnote a: [125I]AB MECA, human A3, HEK-293 cells

T1 sequence (P29274 whole entry): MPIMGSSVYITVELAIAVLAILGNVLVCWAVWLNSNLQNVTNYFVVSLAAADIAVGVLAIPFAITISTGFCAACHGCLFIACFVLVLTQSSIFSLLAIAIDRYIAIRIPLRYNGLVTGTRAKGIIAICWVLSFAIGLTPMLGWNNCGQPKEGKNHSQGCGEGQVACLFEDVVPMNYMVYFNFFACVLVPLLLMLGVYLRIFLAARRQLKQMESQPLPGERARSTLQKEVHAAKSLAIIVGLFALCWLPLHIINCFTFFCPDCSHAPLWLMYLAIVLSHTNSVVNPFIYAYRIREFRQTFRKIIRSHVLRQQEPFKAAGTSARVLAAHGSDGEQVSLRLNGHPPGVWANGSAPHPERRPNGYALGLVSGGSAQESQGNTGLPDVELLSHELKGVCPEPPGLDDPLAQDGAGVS

`CCNc1c2c(nc(NC(=O)Cc3ccc4c(c3)OCO4)n3nc(-c4ccco4)nc23)nn1C` [Compound 50, 2-Benzo[1,3]dioxol-5-yl-N-(9-ethylamino-2-furan-2-yl-8-methyl-8H-pyrazolo[4,3-e][1,2,4]triazolo[1,5-c]pyrimidin-5-yl)-acetamide] showed a Ki [1] of 61 nM, a Ki [2] of 183 nM and a Ki [3] of 65 nM. The Ki [4] was 136 nM.

In the case of `CCNc1c2c(nc(NC(=O)Nc3ccc(OC)cc3)n3nc(-c4ccco4)nc23)nn1C.Cl` [Compound 55, 1-(9-Ethylamino-2-furan-2-yl-8-methyl-8H-pyrazolo[4,3-e][1,2,4]triazolo[1,5-c]pyrimidin-5-yl)-3-(4-methoxy-phenyl)-urea hydrochloride salt], the Ki [1] is reported as 16 nM, the water solubility [5] is reported as “complete water solubility” and the Ki [2] is reported as 9 nM. For the same compound, the “selectivity for A3 versus the other adenosine receptor subtypes” value ([2]; in words) was “very low”, the “affinity for / interaction with A3 adenosine receptor subtype” value ([2]; in words, discussion of Tables 2 and 3) was “increased” and the Ki ([3]; hydrochloride salt) was 23 nM. For the same compound, the Ki ([4]; hydrochloride salt) was 100 nM.

With `CSc1c2c(nc(N)n3nc(-c4ccc(CN5CCN(C)CC5)o4)nc23)nn1C` [Compound 56] the water solubility [5] was “significant water solubility”.

`Nc1nc2c(cnn2CCc2ccccc2)c2nc(-c3ccco3)nn12` [SCH 58261, 5-amino-7-(2-phenylethyl)-2-(2-furyl)pyrazolo[4,3-e]1,2,4-triazolo[1,5-c]pyrimidine] showed a Ki [6] of over 1000 nM.
